Test system: human dermal fibroblast (HDF)
Assay: Comparative gene expression analysis (mRNA sequencing)
Assay type: cell-based
Settings: 5 μM, 24 h
Protocol: Comparative gene expression analysis in human dermal fibroblast (HDF) was performed to gain insight into role of compound 1 in the photoprotection against UV-induced damage. Three independent HDF lines form three patients were treated with 5 μM 1 for 24 h or mock-treated with DMSO. Alternatively, the above three biological samples (without 1) were irradiated with UV light (5 J/cm2). 1.5-3.0×10^6 cells from each treatment or control was used for isolation of total RNA using trizol. cDNA sequencing libraries were prepared with the Illumina TruSeq Stranded mRNA LT Sample Prep Kit (Illumina, San Diego, Calif.) according to standard Illumina's protocols and sequenced on HiSeq 2500 apparatus (50 bp single-end reads).
To reveal the molecular mechanism of the action of 1, we compared data from mock (DMSO)-treated HDF or UV-treated HDF with those obtained after 24 h treatment with 1. For data analysis, we performed ab initio method where sequencing reads were mapped to the reference genome. […] These included calcium-activated potassium channel KCNN4, calcium sensor DYSF or calcium-dependent phospholipid-binding protein CPNE7. […] Thus, 1 seems to protect cells against oxidative damage caused primarily by UV-light or other stress conditions.

[1] = 1-treated vs UV-treated group, P<0.05

## c1nc(NCC2CCCO2)c2ncn(C3CCCO3)c2n1 (centres unmarked) [Compound 1, 6-(tetrahydrofuran-2-ylmethylamino)-9-(tetrahydrofuran-2-yl)purine]
[1]
  number of differentially regulated genes: 1306 genes
  number of downregulated genes: 441 genes
  number of upregulated genes: 865 genes
Vs DMSO mock
  significantly regulated genes, control group vs samples treated with 1 (in words): did not show any significantly regulated genes
Vs UV-treated group
  logFC ABCG1: −2.63
  logFC AC002456.2: 1.58
  logFC AC003986.6: −1.65
  logFC ADAMTS9-AS2: −1.63
  logFC ADGRG1: 1.52
  logFC ANGPTL4: 1.73
  logFC ANKRD33: 2.69
  logFC APOL6: −1.51
  logFC ARHGAP22: 1.66
  logFC B4GALNT1: 1.55
  logFC BHLHE22: −1.90
  logFC BRINP2: −1.77
  logFC BTC: −1.84
  logFC CCDC107: 1.50
  logFC CCL8: −2.80
  logFC CCL26: 1.75
  logFC CD163: 1.67
  logFC CFB: −1.96
  logFC CHRNA9: 2.21
  logFC CITED4: 1.63
  logFC CLNS1AP1: −1.80
  logFC CPNE7: 1.61
  logFC CTD-2587H24.5: 1.54
  logFC CXCL9: −1.79
  logFC CYP51A1: 1.65
  logFC DHRS3: −1.60
  logFC DYSF: 1.73
  logFC EBF2: 1.62
  logFC FAM20A: −1.86
  logFC FAM81A: 1.71
  logFC FGD3: −1.93
  logFC FOLR3: 1.68
  logFC GBP2: −1.61
  logFC GPR37L1: −1.66
  logFC HAUS1P2: −1.54
  logFC HCK: −1.66
  logFC HS3ST2: 2.50
  logFC IFIT2: −1.77
  logFC ITGA10: 1.77
  logFC JAK3: −1.68
  logFC KCNN4: 1.85
  logFC KCNT2: −2.21
  logFC KIF1A: 3.05
  logFC LINC00702: 1.60
  logFC LINC00704: 1.69
  logFC LINC01204: 1.64
  logFC MET: 1.63
  logFC MOB3B: −1.70
  logFC MYEOV: 1.98
  logFC NRROS: 1.74
  logFC NUDT8: 1.56
  logFC PPP2R2C: 1.95
  logFC PSAT1P3: −2.19
  logFC RARRES3: −2.09
  logFC RNF150: −1.80
  logFC RORB: −1.57
  logFC RP1-181J22.1: −2.53
  logFC RP11-21C4.1: −1.95
  logFC RP11-54A9.1: 1.63
  logFC RP11-184E9.1: 1.78
  logFC RP11-363H12.1: −1.58
  logFC RP11-367F23.2: 1.70
  logFC RP11-379B8.1: −1.72
  logFC RP11-383F6.1: −1.50
  logFC RP11-400K9.4: −1.51
  logFC RP11-541M12.6: 1.70
  logFC RP11-1100L3.8: −1.70
  logFC RPL34P31: −1.89
  logFC SCG2: 2.00
  logFC SERPINB9: −1.59
  logFC SLC20A1: 1.56
  logFC STX1A: 1.55
  logFC TGM2: 1.58
  logFC TLR2: −1.63
  logFC TM4SF1: 2.08
  logFC TMEM154: 1.57
  logFC TMEM178A: −1.52
  logFC TMEM233: 2.12
  logFC TNFRSF9: −1.68
  logFC TNFSF10: −2.14
  logFC TNFSF13B: −1.61
  logFC TP63: −1.61
